Read-outs that look alike come from different tables or passages of the source.
Experiments:
[1] = tested on: aus menschlichem Blut hergestellten Suspensionen roter Blutkörperchen; conditions: cited from earlier work
[2] = tested on: aus menschlichem Blut hergestellten Suspensionen roter Blutkörperchen; conditions: human
Description: Dyn. 6, 408-414 [1983]) untersucht. Die Ergebnisse werden in Form der zu 50 %iger Hämolyse gehörenden Konzentrationen (EH₅₀) angegeben. […] Auch die hämolytische Wirkung einer der im Komplex gebundenen γ-CD-Menge entsprechenden Menge γ-Cyclodextrin wurde untersucht.

[3] = Solubility of Amphotericin B in aqueous γ-CD solutions (spectrophotometric); type: physicochemical; conditions: for Amphotericin B Konzentration: 37 °C, 2 Stunden geschüttelt
Experimental: Das ist ein weiterer Beweis dafür, daß das Amphotericin in den γ-CD-haltigen wäßrigen Lösungen in molekular disperser Form vorliegt.
Auch für Amphotericin B wurde die Löslichkeit als Funktion der γ-CD-Konzentration ermittelt. Zu wäßrigen γ-CD-Lösungen unterschiedlicher Konzentration (0, 2, 4, 5, 6, 8, 10 beziehungsweise 12 %) wurden 5 mg/ml Amphotericin B gegeben, und die bei 37 °C thermostatisierten Lösungen wurden 2 Stunden lang intensiv geschüttelt. Die Lösungen wurden klarfiltriert, und die Menge des in Lösung gegangenen Amphotericin B wurde spektrophotometrisch bestimmt. Die Ergebnisse sind in der Tabelle 3 zusammengestellt.

Weibliche CFY-Ratten = experiment: Mortality after subcutaneous administration in rats; type: in vivo; conditions: subcutan, 302 mg/kg, 10 Tiere, observation one week
Description: • a) Die Resorption von Nystatin aus per os verabreichtem Nystatin-γ-CD-Komplex Die Resorption des Wirkstoffes wurde an Mäusen, an einem durch intravenöse Applikation einer Suspension von Candida albicans hervorgerufenen Sepsismodell untersucht. Die Sepsis verursachte innerhalb von 2-3 Tagen 100 %ige Mortalität. Den Versuchstieren wurde per os gemäß Beispiel 3 hergestellte, 8 % Nystatin enthaltende Komplex verabreicht. In einem Parallelversuch wurde Nystatin intravenös appliziert. Für beide Gruppen wurde die auf die unbehandelte Kontrolle bezogene Verlängerung der Überlebensdauer ermittelt. [formula] Wenn man diejenigen in Form des Komplexes per os verabreichten Nystatindosen mit denjenigen i.v. applizierten Nystatindosen vergleicht, die eine etwa gleiche Verlängerung der Überlebensdauer bewirkten (Tabelle 9, letzte Spalte),so läßt sich errechnen, daß aus dem Komplex durchschnittlich 6,2 % des Wirkstoffes in die Blutbahn gelangten. Bei den höchsten Dosen (i.v. 1,56 mg/kg, p.o. 25 mg/kg) ist das Zurückfallen der Überlebensdauer bereits auf die schwache Toxizität des Nystatins zurückzuführen. • b) Die Resorption von Nystatin aus subcutan appliziertem Nystatin-γ-CD-Komplex Weibliche CFY-Ratten eines durchschnittlichen Gewichtes von 180 g wurden mit Nystatin, mit Nystatin-γ-CD-Komplex (Wirkstoffgehalt9 8 %) beziehungsweise mit γ-CD behandelt. […]

[4] = Raumtemperatur an der Luft, innerhalb von zwei Wochen; cited from earlier work
[5] = Heat and storage stability of the solid substances (spectrophotometric content); type: physicochemical; conditions: 60 °C, 24 Stunden, not protected from light or air
Experimental: Zur Untersuchung der Wärmestabilität des Flavofungin-γ-CD-Komplexes wurden die Substanzen in 1 mm Schichtdicke auf Uhrgläsern ausgebreitet und weder vor Licht noch vor Luft geschützt bei Raumtemperatur beziehungsweise bei 60 °C im Trockenschrank gelagert. Die zu unterschiedlichen Zeitpunkten genommenen Proben wurden spektrophotometrisch analysiert.
Der Wirkstoffgehalt des Flavofungin-γ-CD-Komplexes blieb jedoch auch nach 50 Tagen zu etwa 75 % erhalten. Ein 10 % Flavofungin enthaltendes, mit Glucose bereitetes physikalisches Gemisch verlor bei 14tägiger Lagerung bei Raumtemperatur 50 % seines Wirkstoffgehaltes. Der Wirkstoffgehalt des Komplexes war jedoch auch nach 50 Tagen noch zu mehr als 95 % erhalten. Die in einem verschlossenen Gefäß bei +4 °C 7 Monate lang gelagerte Probe zeigte keinen Verlust an Wirkstoff. Die Meßergebnisse sind in der Tabelle 4 zusammengestellt.
(§1) Auch mit diesem Produkt wird die im Beispiel 1 beschriebene Untersuchung der Wärmestabilität vorgenommen. Dabei wurde gefunden, daß der Komplex, ähnlich wie der lyophilisierte Komplex, eine erhöhte Wärmestabilität zeigt und seine antifungale Wirkung nicht geringer wird.

[6] = tested on: S. oerevisiae, C. albicans, C. crusei und C. pseudotropicals; experiment: Microbiological potency after storage (MIC); type: cell-based; conditions: sample stored under nitrogen in the freezer
Experimental: Auch die mikrobiologische Wertmessung bestätigte, daß das Flavofungin in Form des γ-CD-Komplexes viel stabiler ist. Flavofungin-γ-CD-Komplex wurde bei Raumtemperatur und bei 60°C gelagert, und danach war die antifungale Wirkung genau so groß wie ursprünglich.
as §1

[7] = Solubility of Flavofungin in aqueous γ-CD solutions (spectrophotometric); type: physicochemical; conditions: 4 % γ-CD versus water
Experimental: Der erste Beweis für die Wechselwirkung zwischen Flavofungin und γ-Cyclodextrin ist der beträchtliche Anstieg der Löslichkeit des Flavofungins in wäßrigen γ-Cyclodextrinlösungen. Zur Untersuchung der Löslichkeit wurden wäßrige γ-CD-Lösungen unterschiedlicher Konzentration hergestellt: die Lösungen enthielten 0, 1, 2, 3, 4, 5, 7,5 beziehungsweise 10 % γ-CD. Zu je 1 ml der Lösungen wurden 5 mg festes Flavofungin gegeben. Die Lösungen wurden bei 25 °C 3 Stunden lang intensiv geschüttelt.
Die Lösungen wurden klarfiltriert, dann wurde spektrophotometrisch die Menge des in Lösung gegangenen Flavofungins ermittelt. Die Messungen zeigten, daß sich das Flavofungin am besten in 4 % γ-CD enthaltenden wäßrigen Lösungen löst; unter den Bedingungen der Untersuchung können Konzentrationen von etwa 4 mg/ml erzielt werden. […] Eine weitere Erhöhung der γ-CD-Konzentration steigert die Löslichkeit des Flavofungins nicht weiter. Die Ergebnisse der Löslichkeitsuntersuchungen sind in der Tabelle 1 zusammengefaßt.
Die aus dem anfänglich linearen Abschnitt der bei 25 °C aufgenommenen Löslichkeitsisotherme berechnete scheinbare Stabilitätskonstante des Komplexes beträgt etwa 3230.
Die maximale Löslichkeit in 4 %iger γ-CD-Lösung wurde auch bei verschiedenen Temperaturen untersucht. Die Flavofunginkonzentration betrug bei 10 °C 3,3 mg/ml, bei 30 °C 4,1 mg/ml und bei 40 °C 3,8 mg/ml.

Mäusen = conditions: i.p. an Mäusen; cited from earlier work

For C[C@@H]1[C@H](O)[C@@H](C)/C=C/C=C/C=C/C=C/C=C/C=C/C=C/[C@H](O[C@@H]2O[C@H](C)[C@@H](O)[C@H](N)[C@@H]2O)C[C@@H]2O[C@](O)(C[C@@H](O)C[C@@H](O)[C@H](O)CC[C@@H](O)C[C@@H](O)CC(=O)O[C@H]1C)C[C@H](O)[C@H]2C(=O)O [Amphotericin B], the “EH₅₀ (concentration for 50 % haemolysis)” value [1] is given as 5 µg/mL, the “EH₅₀ (concentration for 50 % haemolysis)” value [2] is given as 4,8 µg/ml and the Hämolyse ([2]; 25 µg/ml) is given as 92,4%. For the same compound, the “Löslichkeit relative to Löslichkeit in Wasser” value ([3]; 5 %ige γ-CD-Lösung) was “etwa das Hundertfache”, the “Löslichkeit relative to Löslichkeit in Wasser” value ([3]; 10 %ige γ-CD-Lösung) was “etwa das Zweihundertfache” and the “Löslichkeit in γ-CD-haltigen Lösungen on addition of salt” value ([3]; Zusatz von 0,9 Gew.-% Kochsalz) was “nicht verändert”. The “Amphotericin B Konzentration” value ([3]; γ-CD-Konzentration 0 %) was 0,003 mg/ml, the “Amphotericin B Konzentration” value ([3]; γ-CD-Konzentration 2 %) was 0,12 mg/ml and the “Amphotericin B Konzentration” value ([3]; γ-CD-Konzentration 4 %) was 0,25 mg/ml. For the same compound, the “Amphotericin B Konzentration” value ([3]; γ-CD-Konzentration 5 %) was 0,30 mg/ml, the “Amphotericin B Konzentration” value ([3]; γ-CD-Konzentration 6 %) was 0,36 mg/ml and the “Amphotericin B Konzentration” value ([3]; γ-CD-Konzentration 8 %) was 0,51 mg/ml. For the same compound, the “Amphotericin B Konzentration” value ([3]; γ-CD-Konzentration 10 %) was 0,65 mg/ml and the “Amphotericin B Konzentration” value ([3]; γ-CD-Konzentration 12 %) was 0,65 mg/ml.

For OC[C@H]1O[C@@H]2O[C@H]3[C@H](O)[C@@H](O)[C@@H](O[C@H]4[C@H](O)[C@@H](O)[C@@H](O[C@H]5[C@H](O)[C@@H](O)[C@@H](O[C@H]6[C@H](O)[C@@H](O)[C@@H](O[C@H]7[C@H](O)[C@@H](O)[C@@H](O[C@H]8[C@H](O)[C@@H](O)[C@@H](O[C@H]9[C@H](O)[C@@H](O)[C@@H](O[C@H]1[C@H](O)[C@H]2O)O[C@@H]9CO)O[C@@H]8CO)O[C@@H]7CO)O[C@@H]6CO)O[C@@H]5CO)O[C@@H]4CO)O[C@@H]3CO [γ-CD, γ-Cyclodextrin], the “Mortalität (animals that died)” value (Weibliche CFY-Ratten) was “kein einziges”.

In the case of Flavofungin, the “Verlust der Aktivität” value [4] is given as 50%, the “Zersetzung of the solid” value [5] is given as “starke Zersetzung” and the MIC [6] is given as 25 µg/mL. The “Anstieg der Löslichkeit” value [7] was “etwa das Achtzigfache”.

For Methylester von Amphotericin B, the LD₅₀ (Mäusen) is listed as 1320 mg/kg.

— patent EP0147851B1, “Water soluble forms of polyene antibiotics, and process for preparing them” (priority 1983, dated 1985)
